How the values of data set [1] were obtained:
(§1) Eppendorf vials (1.5 mL size) were charged with model compounds in excess. […] The vials were briefly vortexed and equilibrated in an end-over-end rotator at 30.0° C. for 20 hours.
as §1

A further data set concerns liver cell line (HepG2). The class given is cell-based. From the text:
(§2) The cellular toxicity of sulfoxide 3 was further determined for a breast cancer cell line (MDA-MB-231) and a liver cell line (HepG2).

The test system of data set [2] is breast cancer cell line (MDA-MB-231). Type of data set: cell-based.
From the text: as §2

The conditions of data set [3]: reported value; cited from earlier work.
For another data set, the system named is Brine shrimp. Put plainly: Brine shrimp toxicity assay. Type of data set: in vivo. As for the experimental part:
General procedure for brine shrimp toxicity assays. Sample preparation. Stock solutions of 3 were prepared by dissolving 3 (50.0 mg) in 5.0 HPLC grade water (5.0 mL), (solution A) and 3 (2.50 g) in HPLC grade water (10.0 mL) (solution B). Stock solutions of DMSO were prepared by diluting DMSO (45 μL) with HPLC grade water (5.0 mL) (solution C) and DMSO (2.27 mL) with HPLC grade water (10.0 mL) (solution D).
In each case, 5 replicates were performed. Each replicate was performed in a 2 dram vial marked at the 4 and 5 mL volume points. To each vial was added artificial sea water (3 mL) followed by the appropriate volume of stock solution. For set 1 (1.0 mg/mL), solution A (0.500 mL) or solution C (0.500 mL) was added. For set 2 (5.0 mg/mL), solution B (0.100 mL) or solution D (0.100 mL) was added to each vial. For set 3 (20.0 mg/mL), solution B (0.400 mL) or solution D (0.400 mL) was added to each vial. For set 4 (50.0 mg/mL), solution B (1.00 mL) or solution D (1.00 mL) was added to each vial. Controls containing HPLC grade water (0.100 mL, 0.400 mL, and 1.00 mL) were prepared in the same manner, and five replicates of each control were prepared.
Brine shrimp eggs (San Francisco Bay Brand) were hatched in a commercial salt mixture (Instant Ocean). Constant aeration was provided using a pump and airstone, and illumination was maintained using a desk lamp. The shrimp were collected in a separate tank after 48 hours and used within 3-4 hours of collection.
Brine shrimp were added to each vial using a plastic transfer pipet. After the shrimp were transferred, artificial sea-water was added until the volume reached the 5-mL mark. One drop of a yeast suspension prepared by suspending 11 mg yeast in sea-water (20 mL) was added to each vial. The shrimp were counted at t=24 hours. Another drop of freshly prepared yeast solution (6 mg in 10 mL sea water) was added, the vials were maintained under illumination, and shrimp were counted at t=48 hours.

The nature of data set [4]: Water absorption of compound storage media (Karl Fischer titration). Type of data set: physicochemical. The settings on record: for Water content at t = 7 d: room temperature, pierced septum. How it is done: General procedure for calculation of water absorption. Oven-dried flasks capped with septa were cooled under a N2 atmosphere and charged with a volume of the appropriate solutions (DMSO, 3.0 mL; NMP, 600 μL; 25% 3/NMP, 600 μL). The water content was determined by Karl Fischer titration using about 100 μL aliquots (t=0 measurement). Each septum was pierced with a 1.5 inch 18 gauge needle and left to stand at room temperature for 7 days. The water content was measured at the end of this period (t=7 d measurement) by Karl Fischer titration. All measurements were made in duplicate. Results and Discussion.

We go through five compounds from patent publication US10251860B2, “Compounds for bone healing” (University of Pittsburgh—Of the Commonwealth System of …, priority 2015, dated 2019).

As to `COc1cc(/C=C/C(=O)CC(=O)/C=C/c2ccc(O)c(OC)c2)ccc1O` [Compound 7, curcumin], the “effect of addition of sulfoxide 3 on aqueous solubility” value in data set [1] is reported as “increased the aqueous solubility”.
On to `COC(=O)Nc1nc2ccccc2[nH]1` [Compound 10, carbendazim], for which the “effect of addition of sulfoxide 3 on aqueous solubility” value in data set [1] is given as “increased the aqueous solubility”.
On the same count and under the same terms, the entry for `COC1=CC(=O)C[C@@H](C)[C@]12Oc1c(Cl)c(OC)cc(OC)c1C2=O` [Compound 11, griseofulvin] is “increased the aqueous solubility”.
`C[S+](C)[O-]` [DMSO, dimethyl sulfoxide, reference compound]: the GI50 (in the data set on liver cell line (HepG2); in data set [2]) was about 800 mM in each case. The “reported log P” value in data set [3] is −1.3. Moreover, the “% Mortality after 24 h” value with Brine shrimp (1 mg/mL), in the data set with Brine shrimp (5 mg/mL), in the data set on Brine shrimp (20 mg/mL) and with Brine shrimp (50 mg/mL) was 0% throughout. Moreover, the “% Mortality after 48 h” value in the data set with Brine shrimp (1 mg/mL) is 0-10%; with Brine shrimp (5 mg/mL) it was 0-6%; in the data set with Brine shrimp (20 mg/mL), 0%; in the data set with Brine shrimp (50 mg/mL), 15%. The “mortality after 24 h” value with Brine shrimp (same concentrations (1-50 mg/mL)) is listed as “no mortality”. For the same compound, the “Water content at t = 0” value in data set [4] (first vessel) came to 160 ppm; in data set [4] (second vessel), 170 ppm. Moreover, the “Water content at t = 7 d” value is recorded as 1080 ppm in data set [4] (first vessel) and 1130 ppm in data set [4] (second vessel).
Take `CN1CCCC1=O` [NMP, N-methyl-2-pyrrolidone]: the “Water content at t = 0” value was determined as 150 ppm in data set [4] (first vessel) and 130 ppm in data set [4] (second vessel). Further, the “Water content at t = 7 d” value in data set [4] (first vessel) is 12,090 ppm; in data set [4] (second vessel), 17,000 ppm.
